US7576129B2, “Carboxylic acid compounds” (Ono Pharmaceutical Co., Ltd., priority 2003, dated 2009)

What was measured:
Format in all cases: in vivo, rat
[1] = tested on: adjuvant-induced arthritis model; experiment: Pain reaction of adjuvant-induced arthritis model (squeaking reaction); conditions: Lewis male rats, oral, 1, 3, 10 and 30 mg/kg, observed 1-4 hours after administration
Experimental: A suppressive effect of the compound of the present invention to pain reaction of an adjuvant-induced arthritis model which is a pain model for chronic arthritis was investigated as follows using a squeaking reaction as an index. Lewis male rats of seven weeks age were used. After volume of the left hind leg of each rat was measured, 600 μg/100 μL of dried cells of Mycobacterium butyricum (Difco) suspended in liquid paraffin was injected as an adjuvant into paw skin of a right hind leg to prepare an adjuvant-arthritis rat. After 22 days from injection of the adjuvant, bending and stretching of a knee joint of the left hind leg were conducted for five times before oral administration of a test substance and the rats which squeaked for all of the five times were subjected to the experiment. Depending upon the volume of edema of left hind leg on the previous day, grouping was conducted where one group comprised ten rats. Each of the compound of the present invention (1, 3, 10 and 30 mg/kg) and a 0.5% aqueous solution of methyl cellulose (5 mL/kg) as a control was orally administered. An analgesic action was observed after 1, 2, 3 and 4 hour(s) from the administration.

[2] = tested on: pollakiuria model induced by sulprostone; experiment: Pollakiuria model induced by sulprostone (urination frequency); conditions: male Crj: CD (SD) IGS rats, oral 3, 10, 30 and 100 mg/kg 0.5 hour before sulprostone s.c., 3 hours measurement
Experimental: A suppressive action of the compound of the present invention to a pollakiuria model induced by sulprostone was investigated as follows. Male Crj: CD (SD) IGS rats of body weight of about 300 g were used. Each of the compound of the present invention (3, 10, 30 and 100 mg/kg) and a 0.5% aqueous solution of methyl cellulose (5 mL/kg) as a control was orally administered. After 0.5 hour from oral administration of a test substance, sulprostone (0.2 mg/4 mL/kg) was subcutaneously administered. As a non-induced group, a 0.5% aqueous solution of methyl cellulose was orally administered and, after […], a physiological saline was subcutaneously administered. Measurement of urination was conducted from immediately after administration of sulprostone until 3 hours thereafter. Measurement of urination was done in such a manner that, under the condition of giving neither feed nor water, the animals were placed in a metabolic cage equipped with a urine measuring device and weight of the collected urine with a lapse of time was recorded using a data-collecting system. Incidentally, case numbers for each group were made 3 to 4 cases.

[3] = tested on: carrageenin-induced hyperalgesia model; experiment: Carrageenin-induced hyperalgesia model (escape latency, plantar test); conditions: male SD rats, oral 3, 10 and 30 mg/kg 1 hour before carrageenin, 3 hours after injection
Experimental: An analgesic effect of the compound of the present invention to carrageenin-induced hyperalgesia model which was an acute inflammation pain model was investigated as follows using escape latency as an index. Male rats of an SD strain of seven weeks age were used. Thermal stimulation was irradiated to right hind leg of each rat using a measuring device for a plantar test and the time until escape raising the leg was measured and used as the escape latency. Depending upon the escape latency, grouping was conducted where each group comprised 7 to 8 rats and each of the compound of the present invention (3, 10 and 30 mg/kg) and a 0.5% aqueous solution of methyl cellulose (5 mL/kg) as a control was orally administered. After 1 hour from the oral administration of a test substance, carrageenin (2 mg/100 μL) dissolved in a physiological saline was subcutaneously injected to the sole of right hind leg of the rat. The escape latency during 3 hours after injection of carrageenin was measured.

## Cc1cc(C)cc([C@@H](CC(C)C)NC(=O)c2cc(COc3cc(F)ccc3C)ccc2CCC(=O)O)c1 [compound (I), 3-(2-((((1R)-1-(3,5-dimethylphenyl)-3-methylbutyl)amino)carbonyl)-4-(5-fluoro-2-methylphenoxymethyl)phenyl)propanoic acid]
[1]
  dose as from which individual positive for the analgesic action was noted: ≤ 10 mg/kg
[2]
  dose as from which urination frequency showed low values: not more than 30 mg/kg
[3]
  dose as from which escape latency was significantly high as compared with the control group: not more than 10 mg/kg
